Assay results taken from patent publication US20170275302A1, “INHIBITORS OF THE RENAL OUTER MEDULLARY POTASSIUM CHANNEL” (Merck Sharp & Dohme Corp., priority 2014, published 2017).

Biological target: T1, hROMK (hKir1.1) (Homo sapiens, UniProt P48048)
T1 construct: expressed in transfected cells
T1 sequence (P48048 1-391): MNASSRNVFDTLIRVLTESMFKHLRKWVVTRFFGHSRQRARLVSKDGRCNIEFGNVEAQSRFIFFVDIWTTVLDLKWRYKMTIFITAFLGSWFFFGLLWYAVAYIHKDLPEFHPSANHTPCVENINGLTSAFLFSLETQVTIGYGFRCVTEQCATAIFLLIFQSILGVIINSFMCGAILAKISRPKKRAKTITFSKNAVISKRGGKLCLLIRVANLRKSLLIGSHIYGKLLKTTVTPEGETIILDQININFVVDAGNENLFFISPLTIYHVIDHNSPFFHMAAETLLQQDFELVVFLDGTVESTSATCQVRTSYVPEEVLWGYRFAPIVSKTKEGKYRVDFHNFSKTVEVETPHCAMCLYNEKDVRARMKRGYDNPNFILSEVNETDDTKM
Experiment: Thallium Flux Assay (ROMK channel functional thallium flux assay, FLIPR-Tetra)
Assay type: cell-based
Settings: HEK293 cells stably expressing hROMK (hKir1.1); FluxOR thallium flux, 30 min compound incubation; concentration inhibiting 50% of ROMK thallium flux signal
Protocol: The following Thallium Flux Assay was performed on each of the final product compounds in the Examples.
HEK293 cells stably expressing hROMK (hKir1.1) were grown at 37° C. in a 10% CO2 humidified incubator in complete growth media: Dulbecco's Modified Eagle Medium supplemented with non-essential amino acids, Penicillin/Streptomycin/Glutamine, G418 and FBS. At >80% confluency, the media was aspirated from the flask and rinsed with 10 mL calcium/magnesium-free phosphate buffered saline (PBS). 5 mL of 1× trypsin (prepared in Ca/Mg Free PBS) was added to T-225 flask and the flask was returned to 37° C./CO2 incubator for 2-3 minutes. To dislodge the cells, the side of the flask was gently banged with one's hand. The cells were completely titrated and then the cells were transferred to 25 mL complete media, centrifuged at 1,500 rpm for 6 min followed by resuspension in complete growth media, and the cell concentration was determined. For typical re-seeding, 4E6 cells/T-225 flask will attain >80% confluency in 4 days. Under ideal growth conditions and appropriate tissue culture practices, this cell line is stable for 40-45 passages.
Compound Buffer (per microplate): 20 mL Probenecid/Assay Buffer; 0.3 mM ouabain (10 mM ouabain in water can be stored in amber bottle/aluminum foil at room temperature); Test compound
Stimulant Buffer (prepared at 5× final concentration in 1× FluxOR™Chloride-Free Buffer): 7.5 mM thallium sulfate and 0.75 mM potassium sulfate (to give a final assay concentration of 3 mM Thallium/0.3 mM potassium). Store at 4° C. when not in use. If kept sterile, this solution is good for months.
The ROMK channel functional thallium flux assay was performed in 384 wells, using the FLIPR-Tetra instrument. HEK-hKir1.1 cells were seeded in Poly-D-Lysine microplates and kept in a 37° C.-10% CO2 incubator overnight. On the day of the experiment, the growth media was replaced with the FluxOR™ reagent loading buffer and incubated, protected from light, at ambient temperature (23-25° C.) for 90 min. The loading buffer was replaced with assay buffer±test compound followed by 30 min incubation at ambient temperature, where the thallium/potassium stimulant was added to the microplate.
• 1. Seed HEK-hKir1.1 cells (50 μl at 20,000 cells/well) in 384-well PDL coated Microplates • 2. Allow cells to adhere overnight in humidified 37° C./10% CO2 incubator • 3. Completely remove cell growth media from microplate and replace with 25 μl loading buffer • 4. Incubate Microplate at room temperature, protected form light, for 90 min • 5. Remove loading buffer and replace with 25 μl 1× Assay Buffer±test compound. • 6. Incubate microplate at room temperature, protected from light, for 30 min • 7. At FLIPR-Tetra 384: Add stimulant (thallium/potassium) solution to microplate and monitor fluorescence. Excitation=400 nm, Emission=460 & 580 nm. Collect data for ˜10 min.
The fluorescence intensity of wells containing 3 μM of a standard control ROMK inhibitor of the present invention was used to define the ROMK-sensitive component of thallium flux. Fluorescence in the presence of test compounds was normalized to control values to provide % fluorescence change. IC50 values represent the concentration of compound that inhibited 50% of the ROMK thallium flux signal.

IC50	SMILES
411 nM	Cc1c([C@@H](O)CN2CCC3(CC2)CCN(c2ccc4nnc(-c5ccco5)n4n2)C3)ccc2c1COC2=O [Example 13]
85.9 nM	Cc1nc(C(O)CN2CCC3(CCN(c4ccc5nncn5n4)CC3)C2)ccc1C#N (stereo not drawn) [Example 68]
620 nM	Cc1c([C@@H](O)CN2CCC3(CC2)CCN(C2=Nc4ccccc4C4=NCCN42)C3)ccc2c1COC2=O [Example 7]
190 nM	Cc1c([C@@H](O)CN2CCC3(CC2)CCN(c2cc4cncnc4s2)C3=O)ccc2c1COC2=O [Example 36]
622 nM	Cc1nc(-n2cnnn2)ccc1[C@@H](O)CN1CCC2(CC1)CCN(c1ccc3c(c1C)COC3=O)C2 [Example 78]
208 nM	Cc1cc(C#N)cnc1C(O)CN1CCC2(CC1)CCN(c1ccc3nncn3n1)C2 (stereo not drawn) [Example 49]
260 nM	Cc1c([C@@H](O)CN2CCC3(CC2)CCN(c2ccn4cncc4c2)C3=O)ccc2c1COC2=O [Example 87]
172 nM	Cc1c([C@@H](O)CN2CCC3(CC2)CCN(c2ccc4cnnn4c2)C3=O)ccc2c1COC2=O [Example 86]
267 nM	Cc1c([C@@H](O)CN2CCC3(CC2)CCN(c2ccc4nsnc4c2)C3=O)ccc2c1COC2=O [Example 31]
235 nM	Cc1c([C@@H](O)CN2CCC3(CC2)CCN(c2nccn4cnnc24)C3)ccc2c1COC2=O [Example 3]
246 nM	Cc1c([C@@H](O)CN2CCC3(CC2)CCN(c2ccn4nccc4n2)C3)ccc2c1COC2=O [Example 8]
361 nM	N#Cc1ccc(C(O)CN2CCC3(CC2)CCN(c2ccc4nncn4n2)C3)nc1 (stereo not drawn) [Example 43]
72.8 nM	Cc1cc(C#N)cnc1C(O)CN1CCC2(CCN(c3ccc4nncn4n3)CC2)C1 (stereo not drawn) [Example 66]
116 nM	Cc1c([C@@H](O)CN2CCC3(CC2)CCN(c2ccc4nncn4n2)C3=O)ccc2c1COC2=O [Example 74]
57.1 nM	Cc1c([C@@H](O)CN2CCC3(CC2)CCN(c2snc4ncccc24)C3=O)ccc2c1COC2=O [Example 84]
342 nM	Cc1c([C@@H](O)CN2CCC3(CC2)CCN(c2ccc4nsnc4c2)C3)ccc2c1COC2=O [Example 25, (R)-5-(2-(2-(benzo[c][1,2,5]thiadiazol-5-yl)-2,8-diazaspiro[4.5]decan-8-yl)-1-hydroxyethyl)-4-methylisobenzofuran-1 (3H)-one]
261 nM	Cc1c([C@@H](O)CN2CCC3(CC2)CCN(c2cc4cncnc4s2)C3)ccc2c1COC2=O [Example 28, (R)-5-(1-Hydroxy-2-(2-(thieno[2,3-d]pyrimidin-6-yl)-2,8-diazaspiro[4.5]decan-8-yl)ethyl)-4-methylisobenzofuran-1 (3H)-one]
26 nM	Cc1cc(C#N)c(F)cc1C(O)CN1CCC2(CC1)CCN(c1ccc3nncn3n1)C2 (racemic) [Example 55]
228 nM	COc1cc([C@@H](O)CN2CCC3(CC2)CC(=O)N(c2ccc4nncn4n2)C3)ncc1C#N [Example 61]
850 nM	Cc1c([C@@H](O)CN2CCC3(CC2)CCN(c2cnc4nncn4c2)C3)ccc2c1COC2=O [Example 24, (R)-5-(2-(2-([1,2,4]triazolo[4,3-a]pyrimidin-6-yl)-2,8-diazaspiro[4.5]decan-8-yl)-1-hydroxyethyl)-4-methylisobenzofuran-1(3H)-one]
19 nM	Cc1c([C@@H](O)CN2CCC3(CC2)CCN(c2ccc4c(c2C)COC4=O)C3)ccc2c1COC2=O [Example 79, (R)-5-(1-hydroxy-2-(2-(4-methyl-1-oxo-1,3-dihydroisobenzofuran-5-yl)-2,8-diazaspiro[4.5]decan-8-yl)ethyl)-4-methylisobenzofuran-1(3H)-one]

IC50	SMILES
212 nM	COc1cc([C@H](CN2CCC3(CC2)CCN(c2ccc4nncn4n2)C3)OC(=O)C2CC2)ncc1C#N [Example 22]
486 nM	Cc1c([C@@H](O)CN2CCC3(CC2)CCN(c2ncc4c(C)n[nH]c4n2)C3)ccc2c1COC2=O [Example 17]
109 nM	Cc1c([C@@H](O)CN2CCC3(CC2)CC(=O)N(c2cnc4nonc4c2)C3)ccc2c1COC2=O [Example 94]
48.8 nM	Cc1c([C@@H](O)CN2CCC3(CC2)CCN(c2cc4ccncc4s2)C3=O)ccc2c1COC2=O [Example 32]
221 nM	COc1cc([C@@H](O)CN2CCC3(CC2)CCN(c2ccc4nncn4c2)C3)ncc1C#N [Example 73]
27.6 nM	COc1cc(C(O)CN2CCC3(CC2)CCN(c2ccc4nncn4n2)C3)c(Cl)cc1C#N (stereo not drawn) [Example 56]
129 nM	N#Cc1ccc(C(O)CN2CCC3(CCN(c4ccc5nncn5n4)CC3)C2)nc1 (stereo not drawn) [Example 62]
98.3 nM	Cc1c([C@@H](O)CN2CCC3(CC2)CCN(c2ccc4nonc4c2)C3)ccc2c1COC2=O [Example 90]
84 nM	OC(CN1CCC2(CC1)CCN(c1ccc3nncn3n1)C2)c1ccc(-n2cnnn2)nc1 (racemic) [Example 52]
12.8 nM	Cc1c([C@@H](O)CN2CCC3(CC2)CCN(c2ccc4nnnn4n2)C3)ccc2c1COC2=O [Example 10, (R)-5-(1-hydroxy-2-(2-(tetrazolo[1,5-b]pyridazin-6-yl)-2,8-diazaspiro[4.5]decan-8-yl)ethyl)-4-methylisobenzofuran-1(3H)-one]
35.9 nM	Cc1c(F)c(C#N)cc(F)c1C(O)CN1CCC2(CC1)CCN(c1ccc3nncn3n1)C2 (racemic) [Example 54, 4-(2-(2-([1,2,4]triazolo[4,3-b]pyridazin-6-yl)-2,8-diazaspiro[4.5]decan-8-yl)-1-hydroxyethyl)-2,5-difluoro-3-methylbenzonitrile]
537 nM	Cc1c([C@@H](O)CN2CCC3(CC2)CCN(c2ccc4ncnn4c2)C3=O)ccc2c1COC2=O [Example 35]
29.2 nM	Cc1c([C@@H](O)CN2CCC3(CC2)CCN(c2ccn4nncc4c2)C3=O)ccc2c1COC2=O [Example 88, (R)-2-([1,2,3]triazolo[1,5-a]pyridin-5-yl)-8-(2-hydroxy-2-(4-methyl-1-oxo-1,3-dihydroisobenzofuran-5-yl)ethyl)-2,8-diazaspiro[4.5]decan-1-one]
284 nM	COc1cc2ccc(N3CCC4(CCN(C[C@H](O)c5ccc6c(c5C)COC6=O)CC4)C3=O)nc2cn1 [Example 33]
458 nM	Cc1c([C@@H](O)CN2CCC3(CC2)CC(=O)N(c2cn4ncnc4cn2)C3)ccc2c1COC2=O [Example 39, (R)-2-([1,2,4]triazolo[1,5-a]pyrazin-6-yl)-8-(2-hydroxy-2-(4-methyl-1-oxo-1,3-dihydroisobenzofuran-5-yl)ethyl)-2,8-diazaspiro[4.5]decan-3-one]
261 nM	Cc1c([C@@H](O)CN2CCC3(CC2)CCN(c2nn4cnnc4c4ccccc24)C3)ccc2c1COC2=O [Example 9]
780 nM	COc1cc([C@H](O)CN2CCC3(CC2)CC(=O)N(c2ccc4nncn4n2)C3)ncc1C#N [Example 60]
108 nM	COc1cc([C@H](CN2CCC3(CC2)CCN(c2ccc4nncn4n2)C3)OC(C)=O)ncc1C#N [Example 23, (S)-2-(2-([1,2,4]triazolo[4,3-β]pyridazin-6-yl)-2,8-diazaspiro[4.5]decan-8-yl)-1-(5-cyano-4-methoxypyridin-2-yl)ethyl acetate]
204 nM	Cc1c([C@@H](O)CN2CCC3(CC2)CCN(c2ccc4nnc(C5CC5)n4n2)C3)ccc2c1COC2=O [Example 14]
48.7 nM	COc1cc(C(O)CN2CCC3(CC2)CCN(c2ccc4nncn4n2)C3)ccc1C#N (stereo not drawn) [Example 51]
248 nM	Cc1nc(C(O)CN2CCC3(CC2)CC(=O)N(c2ccc4nncn4n2)C3)ccc1C#N (stereo not drawn) [Example 57]
